According to ChEMBL document CHEMBL1629695, “A novel polymyxin derivative that lacks the fatty acid tail and carries only three positive charges has strong synergism with agents excluded by the intact outer membrane” (Antimicrob Agents Chemother, 2010):
Bridge positions count the residues as written; N and C are the ends. Square brackets hold non-standard residues; d marks the D form. Peptide text beside a SMILES is read from it. * marks the point of attachment. Octanoyl = CCCCCCCC(=O)*; Dab = NCC[C@H](N)C(=O)O; Abu = CC[C@H](N)C(=O)O

What was measured:
Assay type in all cases: functional
Escherichia coli [1] = assay: Antimicrobial activity against Escherichia coli IH3080 assessed as zone of inhibition at 10 ug after 18 hrs by disk diffusion method in presence of 1 ug/ml rifampin
Acinetobacter baumannii [2] = assay: Antimicrobial activity against Acinetobacter baumannii ATCC 19606 assessed as zone of inhibition at 10 ug after 18 hrs by disk diffusion method
Acinetobacter baumannii [3] = assay: Antimicrobial activity against Acinetobacter baumannii ATCC 19606 assessed as zone of inhibition at 10 ug after 18 hrs by disk diffusion method in presence of 1 ug/ml rifampin
Escherichia coli [4] = assay: Antimicrobial activity against Escherichia coli IH3080 assessed as zone of inhibition at 10 ug after 18 hrs by disk diffusion method
Pseudomonas aeruginosa [5] = assay: Antimicrobial activity against Pseudomonas aeruginosa ATCC 27853 assessed as zone of inhibition at 10 ug after 18 hrs by disk diffusion method
Pseudomonas aeruginosa [6] = assay: Antimicrobial activity against Pseudomonas aeruginosa ATCC 27853 assessed as zone of inhibition at 10 ug after 18 hrs by disk diffusion method in presence of 1 ug/ml rifampin

Compound	inhibition zone (IZ) (Escherichia coli [1]) [mm2]	inhibition zone (IZ) (Acinetobacter baumannii [2]) [mm2]	inhibition zone (IZ) (Acinetobacter baumannii [3]) [mm2]	inhibition zone (IZ) (Escherichia coli [4]) [mm2]	inhibition zone (IZ) (Pseudomonas aeruginosa [5]) [mm2]	inhibition zone (IZ) (Pseudomonas aeruginosa [6]) [mm2]
CN[C@H](C(=O)N[C@H](CO)C(=O)N[C@H]1CCNC(=O)[C@H]([C@@H](C)O)NC(=O)[C@H](CCN)NC(=O)[C@H](CCN)NC(=O)[C@H](CC(C)C)NC(=O)[C@@H](Cc2ccccc2)NC(=O)[C@H](CCN)NC1=O)[C@@H](C)O	130	3	79	3	7	38
CC(=O)N[C@H](C(=O)NCCCC(=O)N[C@H]1CCNC(=O)[C@H]([C@@H](C)O)NC(=O)[C@H](CCN)NC(=O)[C@H](CCN)NC(=O)[C@H](CC(C)C)NC(=O)[C@@H](Cc2ccccc2)NC(=O)[C@H](CCN)NC1=O)[C@@H](C)O	8	3	9	3	3	3
CC(=O)N[C@H](C(=O)N[C@H](CC(N)=O)C(=O)N[C@H]1CCNC(=O)[C@H]([C@@H](C)O)NC(=O)[C@H](CCN)NC(=O)[C@H](CCN)NC(=O)[C@H](CC(C)C)NC(=O)[C@@H](Cc2ccccc2)NC(=O)[C@H](CCN)NC1=O)[C@@H](C)O	110	3	154	3	3	3
CCCCCCCC(=O)N[C@H](C(=O)N[C@@H](CC)C(=O)N[C@H]1CCNC(=O)[C@H]([C@@H](C)O)NC(=O)[C@H](CCN)NC(=O)[C@H](CCN)NC(=O)[C@H](CC(C)C)NC(=O)[C@@H](Cc2ccccc2)NC(=O)[C@H](CCN)NC1=O)[C@@H](C)O (Octanoyl-T[Abu][Dab][Dab][dF]L[Dab][Dab]T; lactam 3-C)	206	3	252	32	2	55
CCCCCCCC(=O)N[C@H](C(=O)N[C@H](CO)C(=O)N[C@H]1CCNC(=O)[C@H]([C@@H](C)O)NC(=O)[C@H](CCN)NC(=O)[C@H](CCN)NC(=O)[C@H](CC(C)C)NC(=O)[C@@H](Cc2ccccc2)NC(=O)[C@H](CCN)NC1=O)[C@@H](C)O (Octanoyl-T[dS][Dab][Dab][dF]L[Dab][Dab]T; lactam 3-C)	212	161	395	170	81	87
CC(C)C[C@@H]1NC(=O)[C@@H](Cc2ccccc2)NC(=O)[C@H](CCN)NC(=O)[C@@H](NC(=O)[C@H](CCN)NC(=O)[C@@H](N)[C@@H](C)O)CCNC(=O)[C@H]([C@@H](C)O)NC(=O)[C@H](CCN)NC(=O)[C@H](CCN)NC1=O [POLYMYXIN B NONAPEPTIDE] (H-T[Dab][Dab][Dab][dF]L[Dab][Dab]T; lactam 3-C)	143	3	155	3	144	169
POLYMYXIN B	133	185	202	129	151	166
